Data reported in patent US20130072430A1, “METHODS FOR TREATMENT OR PROPHYLAXIS OF KIDNEY OR LIVER DYSFUNCTION” (NPS PHARMACEUTICALS, INC., priority 2010, published 2013).

Test system: Human patients with short bowel syndrome
Test: Example 1: liver diagnostic biomarkers (total bilirubin, ALT, AST, ALP) in short bowel syndrome patients, every four weeks for 24 weeks
Assay type: in vivo
Parameters: AST (SGOT) Change from Baseline, Median / ALT (SGPT), Median / TOTAL BILIRUBIN, Median / TOTAL BILIRUBIN Change from Baseline, Median / ALT (SGPT) Change from Baseline, Median / AST (SGOT), Median: unit not given here
Procedure: Human patients with short bowel syndrome were divided into three groups: a control group (16 total individuals) to receive placebo, an experimental group (35 total individuals) to receive teduglutide at 0.05 mg/kg/day throughout the study, and an experimental group (32 total individuals) to receive teduglutide at 0.1 mg/kg/day throughout the study. Patients were treated by subcutaneous injection of placebo or the appropriate dose of teduglutide. As individuals with short bowel syndrome are likely to experience associated liver and kidney disease, known biomarkers of liver and kidney function were monitored every four weeks, for 24 weeks. The liver biomarkers tested included total bilirubin, ALT and AST and ALP. The kidney biomarkers tested included urea nitrogen, creatinine and GFR. Before administration of placebo or teduglutide, diagnostic biomarker levels were tested to establish a baseline for each individual.
To visualize the effect of GLP-2 on the levels of the diagnostic biomarkers, the average change from baseline was calculated for the placebo and teduglutide treated groups for each visit after a baseline was established. The average change from baseline of each group is depicted in FIGS. […]. The numerical figures for each diaanostic biomarker at each time point are depicted in Table 1.
The efficacy of teduglutide in treating liver dysfunction was further tested by sorting the data into two groups: individuals with abnormal baseline values of liver diagnostic biomarkers; and individuals with normal baseline values of liver diagnostic biomarkers. The mean diagnostic biomarker change from baseline for these two groups is shown for ALT (FIGS. 5 and 6) and AST (FIGS. 7 and 8). […] These changes were significant when compared to baseline levels for the group, and when compared to placebo (see FIGS. 5 and 7).
The raw data for this sorting is reproduced in Table 2 below.

CC[C@H](C)[C@H](NC(=O)[C@H](Cc1ccccc1)NC(=O)[C@H](CC(=O)O)NC(=O)[C@H](CCCNC(=N)N)NC(=O)[C@H](C)NC(=O)[C@H](C)NC(=O)[C@H](CC(C)C)NC(=O)[C@H](CC(N)=O)NC(=O)[C@H](CC(=O)O)NC(=O)[C@H](CC(C)C)NC(=O)[C@@H](NC(=O)[C@@H](NC(=O)[C@H](CC(N)=O)NC(=O)[C@H](CCSC)NC(=O)[C@H](CCC(=O)O)NC(=O)[C@H](CC(=O)O)NC(=O)[C@H](CO)NC(=O)[C@H](Cc1ccccc1)NC(=O)[C@H](CO)NC(=O)CNC(=O)[C@H](CC(=O)O)NC(=O)CNC(=O)[C@@H](N)Cc1c[nH]cn1)[C@@H](C)O)[C@@H](C)CC)C(=O)N[C@@H](CC(N)=O)C(=O)N[C@@H](Cc1c[nH]c2ccccc12)C(=O)N[C@@H](CC(C)C)C(=O)N[C@H](C(=O)N[C@@H](CCC(N)=O)C(=O)N[C@H](C(=O)N[C@@H](CCCCN)C(=O)N[C@H](C(=O)N[C@H](C(=O)N[C@@H](CC(=O)O)C(=O)O)[C@@H](C)O)[C@@H](C)CC)[C@@H](C)O)[C@@H](C)CC [teduglutide]
ALT (SGPT) Change from Baseline, Median (0.05 mg/kg/day, DW24): −5.0 | ALT (SGPT), Mean (SD) (0.05 mg/kg/day, DW24): 31.7 (26.63) | ALT (SGPT), Median (0.05 mg/kg/day, DW24): 20.0 | AST (SGOT) Change from Baseline, Mean (SD) (0.05 mg/kg/day, DW24): −6.8 (14.29) | AST (SGOT) Change from Baseline, Median (0.05 mg/kg/day, DW24): −4.5 | AST (SGOT), Mean (SD) (0.05 mg/kg/day, DW24): 27.7 (10.23) | AST (SGOT), Median (0.05 mg/kg/day, DW24): 25.0 | TOTAL BILIRUBIN Change from Baseline, Mean (SD) (0.05 mg/kg/day, DW24): −0.5 (7.11) | TOTAL BILIRUBIN Change from Baseline, Median (0.05 mg/kg/day, DW24): 0.0 | TOTAL BILIRUBIN, Mean (SD) (0.05 mg/kg/day, DW24): 10.0 (6.28) | TOTAL BILIRUBIN, Median (0.05 mg/kg/day, DW24): 8.0 | ALKALINE PHOSPHATASE Change from Baseline, Mean (SD) (0.10 mg/kg/day, DW4): −11.3 (32.19) | ALKALINE PHOSPHATASE Change from Baseline, Median (0.10 mg/kg/day, DW4): −10.5 | ALKALINE PHOSPHATASE, Mean (SD) (0.10 mg/kg/day, DW4): 147.5 (74.98) | ALKALINE PHOSPHATASE, Median (0.10 mg/kg/day, DW4): 124.0 | ALT (SGPT) Change from Baseline, Mean (SD) (0.10 mg/kg/day, DW4): −11.6 (22.98) | ALT (SGPT) Change from Baseline, Median (0.10 mg/kg/day, DW4): −6.5 | ALT (SGPT), Mean (SD) (0.10 mg/kg/day, DW4): 38.6 (23.30) | ALT (SGPT), Median (0.10 mg/kg/day, DW4): 30.0 | AST (SGOT) Change from Baseline, Mean (SD) (0.10 mg/kg/day, DW4): −7.3 (15.21) | AST (SGOT) Change from Baseline, Median (0.10 mg/kg/day, DW4): −5.0 | AST (SGOT), Mean (SD) (0.10 mg/kg/day, DW4): 33.5 (17.00) | AST (SGOT), Median (0.10 mg/kg/day, DW4): 28.0 | TOTAL BILIRUBIN Change from Baseline, Mean (SD) (0.10 mg/kg/day, DW4): −4.0 (17.41) | TOTAL BILIRUBIN Change from Baseline, Median (0.10 mg/kg/day, DW4): −1.0 | TOTAL BILIRUBIN, Mean (SD) (0.10 mg/kg/day, DW4): 9.0 (5.65) | TOTAL BILIRUBIN, Median (0.10 mg/kg/day, DW4): 7.0 | ALKALINE PHOSPHATASE Change from Baseline, Mean (SD) (0.10 mg/kg/day, DW8): −21.2 (41.41) | ALKALINE PHOSPHATASE Change from Baseline, Median (0.10 mg/kg/day, DW8): −20.0 | ALKALINE PHOSPHATASE, Mean (SD) (0.10 mg/kg/day, DW8): 139.2 (75.84) | ALKALINE PHOSPHATASE, Median (0.10 mg/kg/day, DW8): 114.0 | ALT (SGPT) Change from Baseline, Mean (SD) (0.10 mg/kg/day, DW8): −15.7 (26.87) | ALT (SGPT) Change from Baseline, Median (0.10 mg/kg/day, DW8): −8.0 | ALT (SGPT), Mean (SD) (0.10 mg/kg/day, DW8): 34.1 (19.74) | ALT (SGPT), Median (0.10 mg/kg/day, DW8): 28.5 | AST (SGOT) Change from Baseline, Mean (SD) (0.10 mg/kg/day, DW8): −10.3 (16.56) | AST (SGOT) Change from Baseline, Median (0.10 mg/kg/day, DW8): −5.0 | AST (SGOT), Mean (SD) (0.10 mg/kg/day, DW8): 29.3 (12.52) | AST (SGOT), Median (0.10 mg/kg/day, DW8): 28.0 | TOTAL BILIRUBIN Change from Baseline, Mean (SD) (0.10 mg/kg/day, DW8): −3.8 (13.91) | TOTAL BILIRUBIN Change from Baseline, Median (0.10 mg/kg/day, DW8): −1.0 | TOTAL BILIRUBIN, Mean (SD) (0.10 mg/kg/day, DW8): 9.4 (9.80) | TOTAL BILIRUBIN, Median (0.10 mg/kg/day, DW8): 7.0 | ALKALINE PHOSPHATASE Change from Baseline, Mean (SD) (0.10 mg/kg/day, DW12): −13.1 (55.43) | ALKALINE PHOSPHATASE Change from Baseline, Median (0.10 mg/kg/day, DW12): −16.5 | ALKALINE PHOSPHATASE, Mean (SD) (0.10 mg/kg/day, DW12): 145.9 (83.34) | ALKALINE PHOSPHATASE, Median (0.10 mg/kg/day, DW12): 115.0 | ALT (SGPT) Change from Baseline, Mean (SD) (0.10 mg/kg/day, DW12): −10.6 (30.82) | ALT (SGPT) Change from Baseline, Median (0.10 mg/kg/day, DW12): −11.0 | ALT (SGPT), Mean (SD) (0.10 mg/kg/day, DW12): 40.4 (22.11) | ALT (SGPT), Median (0.10 mg/kg/day, DW12): 35.0 | AST (SGOT) Change from Baseline, Mean (SD) (0.10 mg/kg/day, DW12): −3.3 (21.39) | AST (SGOT) Change from Baseline, Median (0.10 mg/kg/day, DW12): −3.5 | AST (SGOT), Mean (SD) (0.10 mg/kg/day, DW12): 36.4 (20.41) | AST (SGOT), Median (0.10 mg/kg/day, DW12): 31.5 | TOTAL BILIRUBIN Change from Baseline, Mean (SD) (0.10 mg/kg/day, DW12): −2.9 (12.93) | TOTAL BILIRUBIN Change from Baseline, Median (0.10 mg/kg/day, DW12): 0.0 | TOTAL BILIRUBIN, Mean (SD) (0.10 mg/kg/day, DW12): 10.3 (11.39) | TOTAL BILIRUBIN, Median (0.10 mg/kg/day, DW12): 7.0 | ALKALINE PHOSPHATASE Change from Baseline, Mean (SD) (0.10 mg/kg/day, DW16): −21.3 (59.79) | ALKALINE PHOSPHATASE Change from Baseline, Median (0.10 mg/kg/day, DW16): −20.5 | ALKALINE PHOSPHATASE, Mean (SD) (0.10 mg/kg/day, DW16): 137.7 (81.33) | ALKALINE PHOSPHATASE, Median (0.10 mg/kg/day, DW16): 108.5 | ALT (SGPT) Change from Baseline, Mean (SD) (0.10 mg/kg/day, DW16): −10.0 (35.59) | ALT (SGPT) Change from Baseline, Median (0.10 mg/kg/day, DW16): −10.0 | ALT (SGPT), Mean (SD) (0.10 mg/kg/day, DW16): 39.7 (27.97) | ALT (SGPT), Median (0.10 mg/kg/day, DW16): 30.0 | AST (SGOT) Change from Baseline, Mean (SD) (0.10 mg/kg/day, DW16): −6.6 (22.80) | AST (SGOT) Change from Baseline, Median (0.10 mg/kg/day, DW16): −4.0 | AST (SGOT), Mean (SD) (0.10 mg/kg/day, DW16): 33.0 (16.71) | AST (SGOT), Median (0.10 mg/kg/day, DW16): 30.0 | TOTAL BILIRUBIN Change from Baseline, Mean (SD) (0.10 mg/kg/day, DW16): −3.6 (14.89) | TOTAL BILIRUBIN Change from Baseline, Median (0.10 mg/kg/day, DW16): −0.5 | TOTAL BILIRUBIN, Mean (SD) (0.10 mg/kg/day, DW16): 9.8 (9.14) | TOTAL BILIRUBIN, Median (0.10 mg/kg/day, DW16): 7.5 | ALKALINE PHOSPHATASE Change from Baseline, Mean (SD) (0.10 mg/kg/day, DW20): −18.5 (63.67) | ALKALINE PHOSPHATASE Change from Baseline, Median (0.10 mg/kg/day, DW20): −23.0 | ALKALINE PHOSPHATASE, Mean (SD) (0.10 mg/kg/day, DW20): 137.1 (82.59) | ALKALINE PHOSPHATASE, Median (0.10 mg/kg/day, DW20): 107.0 | ALT (SGPT) Change from Baseline, Mean (SD) (0.10 mg/kg/day, DW20): −8.2 (37.70) | ALT (SGPT) Change from Baseline, Median (0.10 mg/kg/day, DW20): −9.0 | ALT (SGPT), Mean (SD) (0.10 mg/kg/day, DW20): 41.3 (29.36) | ALT (SGPT), Median (0.10 mg/kg/day, DW20): 29.0 | AST (SGOT) Change from Baseline, Mean (SD) (0.10 mg/kg/day, DW20): −4.9 (24.96) | AST (SGOT) Change from Baseline, Median (0.10 mg/kg/day, DW20): −2.5 | AST (SGOT), Mean (SD) (0.10 mg/kg/day, DW20): 34.9 (19.82)
